According to patent US20220274987A1, “PYRAZINO [1,2-B]QUINAZOLINE-3,6-DIONES DERIVATIVES, THEIR PRODUCTION AND USES THEREOF” (CIIMAR -CENTRO INTERDISCIPLINAR DE INVESTIGAÇÃO MARINHA E …, priority 2019, published 2022):
Converted amounts (≈) assume the structure as drawn. Like-named read-outs stand apart in the source and are kept apart here.

Legend:
E. faecalis A5/102 (VRE) = assay: MIC/MBC broth dilution (CLSI), VRE sensitive to ampicillin; type: cell-based; settings: Enterococcus faecalis
Excerpt: (§1) In the present disclosure, two Gram-positive—Staphylococcus aureus ATCC 29213 and Enterococcus faecalis ATCC […] and two Gram-negative—Escherichia coli ATCC 25922 and Pseudomonas aeruginosa ATCC 27853—reference bacterial strains were used. When it was possible to determine a minimal inhibitory concentration (MIC) value for these strains, clinically relevant strains were also used. These included methicillin-resistant S. uareus (MRSA) 66/1, isolated from public buses, as well as a isolate sensitive to the most commonly used antibiotic families (S. aureus 40/61/24) and two vancomycin-resistant Enterococcus (VRE) strains isolated from river water, E. faecalis B3/101 and E. faecalis A5/102, which is sensitive to ampicillin. Frozen stocks of all strains were grown on Mueller-Hinton agar (MH-BioKar Diagnostics, Allone, France) at 37° C. for 24 h. All bacterial strains were sub-cultured on MH agar and incubated overnight at 37° C. before each assay, in order to obtain fresh cultures.
(§2) An initial screening of the antibacterial activity of the compounds was performed by the Kirby-Bauer disk diffusion method, as recommended by the Clinical and Laboratory Standards institute (CLSI). Briefly, sterile 6 mm blank paper disks (Oxoid, Basingstoke, England) impregnated with 15 μg of each compound were placed on inoculated MH agar plates. A blank disk with DMSO was used as a negative control. MH inoculated plates were incubated for 18-20 hours at 37° C. At the end of the incubation, the inhibition halos where measured. The minimal inhibitory concentration (MIC) was used to determine the antibacterial activity of each compound, in accordance with the recommendations of the CLSI. Two-fold serial dilutions of the compounds were prepared in Mueller-Hinton Broth 2 (MHB2-Sigma-Aldrich, St. Louis, Mo., USA) within the concentration range of 0.062-64 μg/mL. Cefotaxime (CTX) ranging between 0.031-16 μg/mL was used as a control. Sterility and growth controls were included in each assay. Purity check and colony counts of the inoculum suspensions were also performed in order to ensure that the final inoculum density closely approximates the intended number ([…]). The MIC was determined as the lowest concentration at which no visible growth was observed. The minimal bactericidal concentration (MBC) was assessed by spreading 10 μL of culture collected from wells showing no visible growth on MH agar plates. The MBC was determined as the lowest concentration at which no colonies grew after 16-18 hours incubation at 37° C. These assays were performed in duplicate.

[1] = tested on: Staphylococcus aureus ATCC 29213; assay: MIC/MBC broth dilution (CLSI), S. aureus reference strain; type: cell-based; settings: for MIC / MBC: Staphylococcus aureus, ATCC29213
Excerpt: as §1, §2

E. faecalis ATCC 29212 = assay: MIC/MBC broth dilution (CLSI), E. faecalis reference strain; type: cell-based, Enterococcus faecalis; settings: for MBC / MIC: Enterococcus faecalis
Excerpt: as §1, §2

E. faecalis B3/101 (VRE) = assay: MIC/MBC broth dilution (CLSI), VRE; type: cell-based; settings: Enterococcus faecalis
Excerpt: as §1, §2

S. aureus 40/61/24 = assay: MIC/MBC broth dilution (CLSI), sensitive clinical isolate; type: cell-based; settings: Staphylococcus aureus
Excerpt: as §1, §2

S. aureus 66/1 (MRSA) = assay: MIC/MBC broth dilution (CLSI), MRSA; type: cell-based; settings: Staphylococcus aureus
Excerpt: as §1, §2

[2] = tested on: Plasmodium falciparum 3D7 strain; assay: In vitro susceptibility assay of P. falciparum, SYBR Green I; type: cell-based; settings: for IC50: Plasmodium falciparum
Experimental: The principle of the in vitro susceptibility test to malaria is to assess the degree of development of parasites P. falciparum in the presence of different concentrations of the compounds.
In the present disclosure, the antimalarial activity was also evaluated. Each compound was lyophilized and solubilized in DMSO (Sigma-Aldrich) to obtain a final concentration of 5 mM. Some intermediate dilutions were made to achieve the final concentration of 10 μM in the first well of the plate.
In an embodiment, the culture of P. falciparum was carried out as follows. […] Parasites were cultivated at 5% hematocrit, 37° C. and atmosphere with 5% of CO2, human serum was replaced with 0.5% AlbuMAXII (Invitrogen™) in the culture medium. Synchronized cultures were obtained by treatments with a 5% (m/v) solution of D-sorbitol (Sigma-Aldrich).
In the present disclosure, the in vitro susceptibility assay of P. falciparum using SYBR Green I was carried out as follows. […] Briefly, early ring stage parasites (>80% of rings, 3% haematocrit and 1% parasitaemia) were tested in duplicate in a 96-well plate and incubated with the compounds for 48 h (37° C., 5% CO2), parasite growth was assessed with SYBR Green I (Thermo Fisher Scientific). Each compound was tested in concentrations ranging from 10 to 0.001 μM. Fluorescence intensity was measured with a microplate reader with excitation and emission wavelengths of 485 and 535 nm, respectively, and analysed by nonlinear regression using GraphPad Prism 5 demo version to determine

[3] = S. aureus ATCC 29213, read-out: MIC
[4] = S. aureus 40/61/24, read-out: MIC
[5] = P. falciparum (3D7), 48 h, read-out: IC50

SMILES | antibacterial (inhibitory) effect (in words) ([1]; S. aureus ATCC 29213) | MBC ([1]; S. aureus ATCC 29213) [mg/L] | MBC (E. faecalis ATCC 29212; ATCC29212) [mg/L] | MBC (S. aureus 40/61/24; S. aureus 40/61/24) [mg/L] | MBC (S. aureus 66/1 (MRSA)) [mg/L] | MIC (S. aureus 66/1 (MRSA)) [mg/L] | MIC [1, 3] [mg/L] | MIC (E. faecalis ATCC 29212; ATCC29212, read-out: MIC) [mg/L] | MIC (S. aureus 40/61/24; [4]) [mg/L] | IC50 [2, 5] [µM] | also measured
CC[C@H](C)[C@@H]1NC(=O)[C@@H](Cc2c[nH]c3ccccc23)n2c1nc1ccc(Cl)cc1c2=O [Compound 29, (1S,4R)-4-((1H-indol-3-yl)methyl)-1-((S)-sec-butyl)-8-chloro-1,2-dihydro-6H-pyrazino[2,1-b]quinazoline-3,6(4H)-dione] | inhibitory effect | > 64 | > 64 | > 64 | > 64 | > 64 |  |  |  |  | MBC (E. faecalis A5/102 (VRE)): > 64 mg/L; MIC (E. faecalis A5/102 (VRE)): 64 mg/L (≈ 147 µM); MIC [1]: 16 mg/L (≈ 36.8 µM); antibacterial (inhibitory) effect (in words) (E. faecalis ATCC 29212): inhibitory effect; MIC (E. faecalis ATCC 29212; ATCC29212): 32 mg/L (≈ 73.6 µM); MBC (E. faecalis B3/101 (VRE)): > 64 mg/L; MIC (E. faecalis B3/101 (VRE)): > 64 mg/L; MIC (S. aureus 40/61/24; 40/61/24): 64 mg/L (≈ 147 µM)
CC(C)[C@@H]1NC(=O)[C@@H](Cc2c[nH]c3ccccc23)n2c1nc1c(Cl)cc(Cl)cc1c2=O [Compound 30, (1S, 4R)-4-((1H -indol-3-yl)methyl)-8,10-dichloro-1-isopropyl-1,2-dihydro-6H-pyrazino[2,1-b]quinazoline-3,6(4H)-dione] | inhibitory effect | > 64 | > 64 | > 64 | > 64 | > 64 | 16 (≈ 35.1 µM) | > 64 | > 64 |  | 
CCC(C)[C@@H]1NC(=O)[C@@H](Cc2c[nH]c3ccccc23)n2c1nc1c(Cl)cc(Cl)cc1c2=O (stereo partly drawn) [Compound 32, (1S, 4R)-4((1H-indol-3-yl)methyl)-1-((S)-sec-butyl) 8,10-dichloro-1,2-dihydro-6H-pyrazinoi[2,1-b]quinazoline-3,6(4H)-dione] | inhibitory effect | > 64 | > 64 | > 64 | > 64 | 8 (≈ 17 µM) | 4 (≈ 8.52 µM) | > 64 |  |  | IC50 ([2]; 3D7, 48 h): 1.51 ± 0.53 µM; MIC (S. aureus 40/61/24; 40/61/24): 8 mg/L (≈ 17 µM)
CC(C)C[C@@H]1NC(=O)[C@@H](Cc2c[nH]c3ccccc23)n2c1nc1ccc(I)cc1c2=O [Compound 35, (1S,4R)-4-((1H-indol-3-yl)methyl)-8-iodo-1-isobutyl-1,2-dihydro-6H-pyrazino[2,1-b]quinazoline-3,6(4H)-dione] | inhibitory effect | > 64 | > 64 | > 64 | > 64 | > 64 | 16 (≈ 30.4 µM) | > 64 | 64 (≈ 122 µM) |  | 
CC(C)C[C@@H]1NC(=O)[C@@H](Cc2c[nH]c3ccccc23)n2c1nc1ccc(Br)cc1c2=O [Compound 36, (1s,4R)-4-((1H-indol-3-yl)methyl)-8-bromo-1-isobutyl-1,2-dihydro-6H-pyrazino[2,1-b]quinazoline-3,6(4H)-dione] | inhibitory effect | > 64 | > 64 | > 64 | > 64 | > 64 | 16 (≈ 33.4 µM) | > 64 | > 64 |  | 
O=C1N[C@@H](Cc2ccc(OCc3ccccc3)cc2)c2nc3c(Cl)cc(Cl)cc3c(=O)n2[C@@H]1Cc1c[nH]c2ccccc12 [Compound 38] |  |  |  |  |  |  |  |  |  |  | IC50 ([2]; 3D7, 48 h): 4 ± 0.02 µM
CC(C)C[C@@H]1NC(=O)[C@@H](Cc2c[nH]c3ccccc23)n2c1nc1ccc(O)cc1c2=O [Compound 39] |  |  |  |  |  |  |  |  |  | 0.73 ± 0.07 | 
CC(C)C[C@@H]1NC(=O)[C@@H](Cc2c[nH]c3ccccc23)n2c1nc1cnccc1c2=O [Compound 42, (1S,4R)-4-((1H-indol-3-yl)methyl)-1-isobutyl-1,2-dihydro-6H-pyrazino[1,2-α]pyrido[3,4-d]pyrimidine-3,6(4H)-dione] |  |  |  |  |  |  |  |  |  | 4 ± 0.02 | 
CC(C)C[C@@H]1NC(=O)[C@@H](Cc2c[nH]c3ccccc23)n2c1nc1ncccc1c2=O [Compound 43] |  |  |  |  |  |  |  |  |  | 3.76 | 
CC(C)C[C@@H]1NC(=O)[C@@H](Cc2cc3ccccc3[nH]2)n2c1nc1cc(-c3nnnn3C)ccc1c2=O [Compound 44, (1S,4R)-4-((1H-indol-2-yl)methyl)-1-isobutyl-9-(1-methyl-1H-tetrazol-5-yl)-1,2-dihydro-6H-pyrazino [2,1-b]quinazoline-3,6(4H)-dione] |  |  |  |  |  |  |  |  |  | 1.02 ± 0.27 | antimalarial activity (in words) ([2]; P. falciparum 3D7): weak activity
